Patent publication US6028197A, “Dibenzo[a,g]quinolizinium derivatives and the salts thereof” (Hanwha Corporation, priority 1998, dated 2000)
pIC50: −log10 of the molar value. Read-outs that look alike come from different tables or passages of the source.

Tests used:
[1] = tested on: Syrian Golden Hamster; assay: In vivo effect on plasma lipids in Syrian Golden Hamster; conditions: for HDL cholesterol, change versus normal diet control / LDL cholesterol, change versus normal diet control / Total cholesterol, change versus normal diet control / Triglyceride, change versus normal diet control / HDL cholesterol / LDL cholesterol / Total cholesterol / Triglyceride: 14 days; for total cholesterol, LDL-cholesterol, and triglyceride levels: compared with lovastatin; for HDL cholesterol / LDL cholesterol / Total cholesterol / Triglyceride: normal diet, plasma
Description: In order to investigate the effect of the compound of formula (I) of the invention, the compound was orally administered into male Syrian Golden Hamsters having weights of 90~110 g for two weeks and blood was then taken from each animal. Plasma lipids, i.e., total cholesterol, LDL-cholesterol,HDL-cholesterol and triglycerides were analyzed using an automatic analyzer (Automatic analyzer model Hitachi 7150).
Male Syrian Golden Hamsters weighing 90~110 g distributed from Samyuk Animal Laboratory, Seoul, Korea were bred under the following conditions: they were maintained under reverse light cycle (light cycle: from 6 P.M to 6 A.M; dark cycle: from 6 A.M. to 6 P.M.). The food and water were supplied at 10 A.M. The commercially available standard rodent chows were used. The hamsters were divided into 6 or 7 animals per group. The animals were fasted for 12 hours before administrating the drug. Then, 5,6-dihydrodibenzo[a,g]quinolizinium salts (compound no. 2) dissolved in a 0.25% methyl cellulose solution was administered orally for 14 days at the indicated time per a day. After fasting animals for 24 hours from the last administration, blood was extracted using a cardiac puncture and plasma was then isolated. Plasma lipids, i.e., total cholesterol, LDL-cholesterol, HDL-cholesterol and triglyceride values were analyzed using Automatic Analyzer (Hitachi 7150).

[2] = tested on: HepG2 cells; assay: Cholesterol biosynthesis in cultured human liver cell line ([1,2-14C]acetate incorporation); assay type: cell-based; conditions: compared with AY9944 (comparative drug)
Description: Cultured human liver HepG2 cell line was grown on RPMI (Rosewell park Memorial Institute) 1640 culture medium containing 10% PBS until 60% of monolayer are formed in a 60 mm culture dish. After replacing the medium with 3 ml of a fresh culture medium containing 10% (v/v) LPDS (Fetal calf lipoprotein-deficient serum), the cells were further grown for 48 hours until 90% of cultivation degree appear The culture medium was removed and the cell was then washed with PBS. 2 ml of culture medium containing compound no. 2 (final concentration 100 μM) and AY-9944 (final concentration 1 μM) were added thereto. Then, the medium was cultivated at 37° C. for 1 hour under the condition of 95% air/5% carbonic acid gas. AY-9944 which is an inhibitor for sterol 7-reductase was used as a control drug for assuring the present experimental procedure on the inhibition of cholesterol biosynthesis. Thereafter, 3 μCi of [1,2-^14 C]acetate (72 mCi/mmol) were added thereto. The cultivation was continued for 2 hours so that the isotope is introduced into the cell and used as a precursor for sterol to be synthesized. Then, the culture medium was completely removed and washed with PBS twice and the cells were collected by scratching. 10 μg of cholesterol, 10 μg of lanosterol and [^3 H]cholesterol (30,000 dpm) were added thereto, and saponification reaction was carried out at 70° C. for an hour by adding 7.5% of methanolic KOH solution. Unsaponified sterol was removed by extracting them three times with 3 ml of petroleum ether and dried with nitrogen purging. The dried samples were redissolved in 200 μl of chloroform. An aliquot of the samples was loaded onto Silicagel 60F thin layer plate and then separated using ethyl acetate/hexane 25/75 (v/v) as the developing solvent. The thin layer film was developed by exposure to Amersham Hyperfilm at -70° C. for 7 days. Cholesterol band were confirmed by comparing the band appeared in the film and that appeared in the iodine-stained thin layer. After scratching the cholesterol band, it was quantified by a liquid scintillation counter.

[3] = biological target: T1, sterol 14-reductase (Rattus norvegicus, UniProt A0ACM8Q6X4); assay: Inhibition of sterol 14-reductase in rat liver microsomes; assay type: biochemical
T1 construct: microsome which was used as an enzyme source of sterol 14-reductase; from tissue; host or cells: liver microsomes of male Sprague-Dawley rats fed lovastatin and cholestyramine
T1 sequence (A0ACM8Q6X4 1-418): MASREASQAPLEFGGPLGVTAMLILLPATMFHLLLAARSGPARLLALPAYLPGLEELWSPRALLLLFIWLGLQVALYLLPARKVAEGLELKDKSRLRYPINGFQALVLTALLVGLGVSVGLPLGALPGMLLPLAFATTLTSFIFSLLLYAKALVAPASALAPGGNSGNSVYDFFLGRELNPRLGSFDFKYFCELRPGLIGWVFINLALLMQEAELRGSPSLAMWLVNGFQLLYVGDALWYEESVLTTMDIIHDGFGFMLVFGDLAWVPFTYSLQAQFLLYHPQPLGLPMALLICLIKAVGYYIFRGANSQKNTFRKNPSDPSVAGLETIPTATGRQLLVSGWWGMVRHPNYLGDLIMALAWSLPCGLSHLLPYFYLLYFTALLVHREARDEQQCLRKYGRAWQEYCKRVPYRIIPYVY
Description: 20 Male Sprague-Dawley rats weighing from 150 to 250 g have been fed for 7 days with a diet containing 0.1% (w/w) Lovastatin and 5% (w/w) Cholestyramine. The animals were fasted for 12 hours before excising liver tissues and then sacrificed by decapitation at midnight. An aqueous solution containing 0.25M of sucrose was injected into the hepatic portal vein to remove all the blood within the liver, and then, the liver was excised. The liver was homogenated with two volumes of buffer solution A (0.1M potassium phosphate, 1 mM reduced glutathione, 0.5 mM EDTA, 20% (v/v) glycerol, pH 7.4) by repeating pestles over 10 times and then, centrifuged with 900×g for 5 minutes to give a supernatant. The supernatant was centrifuged with 12,000×g for 20 minutes. The supernatant obtained was ultracentrifuged with 105,000×g for 90 minutes to give a microsome which was used as an enzyme source of sterol 14-reductase. Assay for sterol 14-reductase was carried out as follows:
60 mmol of 4,4-dimethyl-5α-cholesta-7,14-dien-3β-ol and 5,6-dihydrodibenzo-[a,g]quinolizinium salts (compound no. 2) dissolved in DMSO were added to an assay mixture (total volume 1.0 ml) containing 2 mg of the microsomal protein, 2 mM of NADPH and 25 mg of glucose plus 20 units of glucose oxidase with preincubations under nitrogen at 37° C. for 4 min. unless otherwise specified to establish anaerobic condition. Buffer A (0.1M potassium phosphate buffer, pH 7.4, including 1 mM reduced glutathione, 0.5 mM EDTA, and 20% (v/v) glycerol) used for incubation had been equilibrated with nitrogen, and nitrogen was exchanged for air in all sealed reaction flasks prior to the start of incubations. Incubation of the complete mixture was carried out anaerobically in sealed flasks for 10 min at 37° C. unless otherwise indicated. Incubations were terminated by the addition of 1 ml of ethanolic KOH followed by heating under reflux for 10 min. Sterols were extracted four times with 4 ml of petroleum ether, and the solvent was evaporated to dryness under a nitrogen stream. The resulting residue was dissolved in 200-500 μl of n-hexane for quantification by GLC at high sensitive attenuation. The activity of sterol 14-reductase was determined with the amount of the substrate wherein the double bonds of 14-carbon were reduced (for the amount reduced by 1 mg of the microsome protein for 1 minute).

[4] = Acute oral toxicity in SD rats; assay type: in vivo; conditions: rat, in vivo, po, rats
Description: (§1) Meanwhile, the toxicity of the compounds of the present invention was investigated as follows: i.e., the compounds were suspended into propylene glycol and then orally administered into each of 5 male and female SD rats at the age of 5-weeks that were fasted for 12 hours. Under the usual breeding conditions, general symptoms, weight change and lethal case of the above rats were monitored for two weeks. At the dose over 2,000 mg/kg of the compound nos. 2, 3, 9 and 68, general symptoms and the body weight change of the animals were normal and the lethal case was not observed.

[5] = tested on: SD rats; assay: Acute oral toxicity in SD rats; assay type: in vivo; conditions: for general symptoms and the body weight change: oral dose over 2,000 mg/kg, monitored for two weeks; for lethal case: rat, in vivo
Description: as §1

[6] = read-out: Enzyme Activity (relative in vitro activity for sterol 14-reductase, IC50 class)

Structure (SMILES): CCCOc1cc2c(cc1OCCC)-c1c(CC)c3ccc(OCCC)c(OCc4ccc(C(F)(F)F)cc4)c3c[n+]1CC2 [Compound No. 68, 5,6-dihydro-2,3-dipropoxybenzo[a]-13-ethyl-10-propoxy-9-(4-trifluoromethyl)benzyloxybenzo[g]quinolizinium chloride]
- HDL cholesterol, change versus normal diet control ([1]; 0.3 mg/kg/day oral): -2.0%
- LDL cholesterol, change versus normal diet control ([1]; 0.3 mg/kg/day oral): -41.1%
- Total cholesterol, change versus normal diet control ([1]; 0.3 mg/kg/day oral): -33.1%
- Triglyceride, change versus normal diet control ([1]; 0.3 mg/kg/day oral): -43.1%
- total cholesterol, LDL-cholesterol, and triglyceride levels [1]: markedly decreased
- HDL cholesterol ([1]; 0.3 mg/kg/day oral): 58.6 ± 3 mg/dL
- LDL cholesterol ([1]; 0.3 mg/kg/day oral): 21.8 ± 3 mg/dL
- Total cholesterol ([1]; 0.3 mg/kg/day oral): 87.4 ± 6 mg/dL
- Triglyceride ([1]; 0.3 mg/kg/day oral): 45.2 ± 7 mg/dL
- inhibition of cholesterol biosynthesis in human HepG2 cell line [2]: markedly inhibited
- pIC50 [3, 6]: > 6.00
- LD50 at 336 h ([4]; female): > 3000 mg/kg
- LD50 at 336 h ([4]; male): > 3000 mg/kg
- general symptoms and the body weight change [5]: normal
- lethal case [5]: not observed

Structure (SMILES): CC[C@H](C)C(=O)O[C@H]1C[C@@H](C)C=C2C=C[C@H](C)[C@H](CC[C@@H]3C[C@@H](O)CC(=O)O3)[C@H]21 [lovastatin, reference compound]
- HDL cholesterol, change versus normal diet control ([1]; 6.0 mg/kg/day oral): +11.2%
- LDL cholesterol, change versus normal diet control ([1]; 6.0 mg/kg/day oral): -21.4%
- Total cholesterol, change versus normal diet control ([1]; 6.0 mg/kg/day oral): -17.6%
- Triglyceride, change versus normal diet control ([1]; 6.0 mg/kg/day oral): -30.1%
- HDL cholesterol ([1]; 6.0 mg/kg/day oral): 67.0 ± 3 mg/dL
- LDL cholesterol ([1]; 6.0 mg/kg/day oral): 29.1 ± 2 mg/dL
- Total cholesterol ([1]; 6.0 mg/kg/day oral): 107.8 ± 9 mg/dL
- Triglyceride ([1]; 6.0 mg/kg/day oral): 55.5 ± 7 mg/dL

Structure (SMILES): CCc1c2[n+](cc3c(OCc4ccc(C(C)(C)C)cc4)c(OC)ccc13)CCc1cc(OC)c(OC)cc1-2 [Compound No. 2, 5,6-dihydro-2,3-dimethoxybenzo[a]-9-[4-(tert-butyl)benzyloxy]-13-ethyl-10-methoxybenzo[g]quinolizinium chloride]
- HDL cholesterol, change versus normal diet control ([1]; 0.3 mg/kg/day oral): +11.4%
- LDL cholesterol, change versus normal diet control ([1]; 0.3 mg/kg/day oral): -16.0%
- Total cholesterol, change versus normal diet control ([1]; 0.3 mg/kg/day oral): -11.5%
- Triglyceride, change versus normal diet control ([1]; 0.3 mg/kg/day oral): -14.6%
- total cholesterol, LDL-cholesterol, and triglyceride levels [1]: markedly decreased
- HDL cholesterol ([1]; 0.3 mg/kg/day oral): 66.6 ± 7 mg/dL
- LDL cholesterol ([1]; 0.3 mg/kg/day oral): 31.0 ± 3 mg/dL
- Total cholesterol ([1]; 0.3 mg/kg/day oral): 115.8 ± 8 mg/dL
- Triglyceride ([1]; 0.3 mg/kg/day oral): 67.8 ± 8 mg/dL
- inhibition of cholesterol biosynthesis in human HepG2 cell line [2]: markedly inhibited
- pIC50 ([3]; rat liver microsome, anaerobic, 10 min at 37° C., read-out: level of compound at which 50% of inhibition of the enzymatic activity was observed): 6.52 to 7.00
- pIC50 [3, 6]: > 6.00
- LD50 at 336 h ([4]; female): > 2000 mg/kg
- LD50 at 336 h ([4]; male): > 2000 mg/kg
- general symptoms and the body weight change [5]: normal
- lethal case [5]: not observed

Structure (SMILES): CCc1c2[n+](cc3c(OCc4c(F)c(F)c(F)c(F)c4F)c(OC)ccc13)CCc1cc(OC)c(OC)cc1-2 [Compound No. 3, 5,6-dihydro-2,3-dimethoxybenzo[a]-13-ethyl-10-methoxy-9-(2,3,4,5,6-pentafluoro)benyloxybenzo[g]quinolizinium chloride]
- HDL cholesterol, change versus normal diet control ([1]; 0.3 mg/kg/day oral): +5.4%
- LDL cholesterol, change versus normal diet control ([1]; 0.3 mg/kg/day oral): -49.2%
- Total cholesterol, change versus normal diet control ([1]; 0.3 mg/kg/day oral): -23.5%
- Triglyceride, change versus normal diet control ([1]; 0.3 mg/kg/day oral): -38.0%
- total cholesterol, LDL-cholesterol, and triglyceride levels [1]: markedly decreased
- HDL cholesterol ([1]; 0.3 mg/kg/day oral): 63.0 ± 3.0 mg/dL
- LDL cholesterol ([1]; 0.3 mg/kg/day oral): 18.8 ± 2 mg/dL
- Total cholesterol ([1]; 0.3 mg/kg/day oral): 89.0 ± 7 mg/dL
- Triglyceride ([1]; 0.3 mg/kg/day oral): 49.2 ± 6 mg/dL
- inhibition of cholesterol biosynthesis in human HepG2 cell line [2]: markedly inhibited
- pIC50 [3, 6]: > 6.00
- LD50 at 336 h ([4]; female): > 2000 mg/kg
- LD50 at 336 h ([4]; male): > 2000 mg/kg
- general symptoms and the body weight change [5]: normal
- lethal case [5]: not observed

Structure (SMILES): CCc1c2[n+](cc3c(OCc4ccc(C(F)(F)F)cc4)c(OC)ccc13)CCc1cc(OC)c(OC)cc1-2 [Compound No. 9, 5,6-dihydro-2,3-dimethoxybenzo[a]-13-ethyl-10-methoxy-9-(4-trifluoromethyl)benzyloxybenzo[g]quinolizinium chloride]
- HDL cholesterol, change versus normal diet control ([1]; 0.3 mg/kg/day oral): -6.0%
- LDL cholesterol, change versus normal diet control ([1]; 0.3 mg/kg/day oral): -45.4%
- Total cholesterol, change versus normal diet control ([1]; 0.3 mg/kg/day oral): -37.0%
- Triglyceride, change versus normal diet control ([1]; 0.3 mg/kg/day oral): -43.6%
- total cholesterol, LDL-cholesterol, and triglyceride levels [1]: markedly decreased
- HDL cholesterol ([1]; 0.3 mg/kg/day oral): 56.2 ± 3.0 mg/dL
- LDL cholesterol ([1]; 0.3 mg/kg/day oral): 20.2 ± 2 mg/dL
- Total cholesterol ([1]; 0.3 mg/kg/day oral): 82.4 ± 7 mg/dL
- Triglyceride ([1]; 0.3 mg/kg/day oral): 44.8 ± 5.5 mg/dL
- inhibition of cholesterol biosynthesis in human HepG2 cell line [2]: markedly inhibited
- pIC50 [3, 6]: > 6.00
- LD50 at 336 h ([4]; female): > 2000 mg/kg
- LD50 at 336 h ([4]; male): > 2500 mg/kg
- general symptoms and the body weight change [5]: normal
- lethal case [5]: not observed
